Laboratory results reported in patent publication US20100215716A1, “COMPOSITIONS AND METHODS FOR COATING ORTHOPEDIC IMPLANTS” (Biomet Manufacturing Corp., priority 2009, published 2010).

Assay: Solubility of antibiotics and polymer in organic solvents

Question: With CC[C@H]1OC(=O)[C@H](C)[C@@H](O[C@H]2C[C@@](C)(OC)[C@@H](O)[C@H](C)O2)[C@H](C)[C@@H](O[C@@H]2O[C@H](C)C[C@H](N(C)C)[C@H]2O)[C@](C)(O)C[C@@H](C)C(=O)[C@H](C)[C@@H](O)[C@]1(C)O [erythromycin] as the molecule, how does the “solubility in ethyl acetate, dichloromethane, and tetrahydrofuran” value read?
Answer: Its value is “dissolved”.
